This experiment concerns the target T1, P2X7 (Homo sapiens, UniProt Q99572).
T1 construct: host or cells: SH-SY5Y
T1 sequence (Q99572 1-595): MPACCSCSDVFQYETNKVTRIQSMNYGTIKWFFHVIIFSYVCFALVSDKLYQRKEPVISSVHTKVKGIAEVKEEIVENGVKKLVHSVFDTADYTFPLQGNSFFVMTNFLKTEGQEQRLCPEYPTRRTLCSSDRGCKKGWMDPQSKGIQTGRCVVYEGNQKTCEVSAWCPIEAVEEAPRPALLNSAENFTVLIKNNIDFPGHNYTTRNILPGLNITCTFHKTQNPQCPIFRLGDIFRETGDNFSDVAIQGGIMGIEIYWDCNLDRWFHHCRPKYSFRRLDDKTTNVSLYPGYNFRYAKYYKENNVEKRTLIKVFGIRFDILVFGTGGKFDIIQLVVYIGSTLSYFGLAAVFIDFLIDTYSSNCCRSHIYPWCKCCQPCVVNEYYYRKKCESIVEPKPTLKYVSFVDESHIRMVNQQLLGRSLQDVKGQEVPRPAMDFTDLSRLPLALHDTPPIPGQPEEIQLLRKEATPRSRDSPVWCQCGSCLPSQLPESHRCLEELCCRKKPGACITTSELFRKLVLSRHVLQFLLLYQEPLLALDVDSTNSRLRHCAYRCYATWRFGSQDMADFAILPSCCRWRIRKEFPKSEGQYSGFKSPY
The experiment is described as follows: High Throughput P2X7 Calcium Mobilization Assay (Example 4A), antagonist activity. The experiment is classed as cell-based. The following applies: SH-SY5Y cells, 50% decrease in fluorescence response of cells exposed to 80 μM BzATP. Here is the method:
A. High Throughput P2X7 Calcium Mobilization Assay
SH-SY5Y cells, ATCC Number CRL-2266, (American Type Culture Collection, Manassas, Va.) are cultured under DMEM/High medium supplemented with 10% FBS, and 10 mM HEPES (Invitrogen Corp., Carlsbad, Calif.) in 5% CO2 and at 37° C. One day prior to the experiment, cells are plated at a density of 100,000 cells/well in a 96 well black/clear TC plate (Corning® Costar®, Sigma-Aldrich Co., St. Louis, Mo.). At the beginning of the experiment, the culture medium is removed and cells are incubated with 50 μL of 2.3 μM Fluo-4 AM dye (Invitrogen Corp.) in the assay solution (5 mM KCl, 9.6 mM NaH2PO4.H2O, 25 mM HEPES, 280 mM Sucrose, 5 mM Glucose, and 0.5 mM CaCl2; pH is adjusted to 7.4 with NaOH) for an hour at 37° C. After one hour dye incubation, wells are rinsed once with 50 μL assay solution, and are then incubated for an hour at room temperature with 100 μL assay solution containing the test compound. The final concentration of test compound generally ranges from 1 to 2500 nM; for positive control cells, no test compound is added. After the one hour incubation, plates are transferred to a FLIPR^TETRA instrument (Molecular Devices, Sunnyvale, Calif.) for calcium mobilization analysis.
For determination of antagonist activity, 50 μL of P2X7 agonist (2′(3′)-O-(4-benzoyl-benzoyl)adenosine 5′-triphosephate (BzATP; Sigma-Aldrich) in the assay solution is transferred using the FLIPR into the plate, such that the final agonist concentration is 80 μM (about EC50). In negative control cells, 50 μL of assay solution without agonist is added at this stage. The peak fluorescence signal over a 2 minute period is then measured.
First, the average maximum relative fluorescent unit (RFU) response from the negative control wells (no agonist) is subtracted from the maximum response detected for each of the other experimental wells. Second, average maximum RFU response is calculated for the positive control wells (agonist wells). Then, percent inhibition for each compound tested is calculated using the equation: Percent Inhibition=100−100×(Peak Signal in Test Cells/Peak Signal in Control Cells) The % inhibition data is plotted as a function of test compound concentration and test compound IC50 is determined using, for example, KALEIDAGRAPH software (Synergy Software, Reading, Pa.) best fit of the data to the equation: y=m1*(1/(1+(m2/m0)^m3)) where y is the percent inhibition, m0 is […], m1 is the maximum RFU, m2 corresponds to the test compound IC50 (the concentration required to provide a 50% decrease, relative to the response observed in the presence of agonist and without antagonist) and m3 is the Hill coefficient.
(In general: Calcium assays in cells follow changes in intracellular calcium, usually with a dye or a luminescent sensor.)

Each structure is given as a SMILES string.

`CN(C(=O)c1cc2c(C(=O)NCC34CC5CC(CC(C5)C3)C4)cccn2n1)C1CCOCC1` [Compound 37, 4-N-(adamantan-1-ylmethyl)-2-N-methyl-2-N-(tetrahydro-2H-pyran-4-yl)pyrazolo[1,5-a]pyridine-2,4-dicarboxamide]: the IC50 – broadly, the midpoint of a concentration-inhibition curve – is at most 2 µM.
Next, `COCCCNC(=O)c1cc2c(C(=O)NCC34CC5CC(CC(C5)C3)C4)cccn2n1` [Compound 38, 4-N-(adamantan-1-ylmethyl)-2-N-(3-methoxypropyl)pyrazolo [1,5-a]pyridine-2,4-dicarboxamide]: at most 2 µM; `CN(C(=O)c1cc2c(C(=O)NCC34CC5CC(CC(C5)C3)C4)cccn2n1)c1ccncc1` [Compound 39, 4-N-(adamantan-1-ylmethyl)-2-N-methyl-2-N-pyridin-4-ylpyrazolo[1,5-a]pyridine-2,4-dicarboxamide]: at most 2 µM.
For the compound `O=C1CC2(CCN(C(=O)c3cc4c(C(=O)NCC56CC7CC(CC(C7)C5)C6)cccn4n3)CC2)CN1` [Compound 40, N-(adamantan-1-ylmethyl)-2-[(3-oxo-2,8-diazaspiro[4.5]dec-8-yl)carbonyl]pyrazolo [1,5-a]pyridine-4-carboxamide], the IC50 is at most 2 µM.
Turning to `CCOC(=O)CNC(=O)c1cc2c(C(=O)NCC34CC5CC(CC(C5)C3)C4)cccn2n1` [Compound 41, ethyl N-({4-[(adamantan-1-ylmethyl)carbamoyl]pyrazolo[1,5-a]pyridin-2-yl}carbonyl)glycinate], the IC50 is at most 2 µM.
Next, `COCCNC(=O)c1cc2c(C(=O)NCC34CC5CC(CC(C5)C3)C4)cccn2n1` [Compound 42, 4-N-(adamantan-1-ylmethyl)-2-N-(2-methoxyethyl)pyrazolo [1,5-a]pyridine-2,4-dicarboxamide]: at most 2 µM; `CC(C)CC(CNC(=O)c1cccn2nc(C(=O)N3CCC[C@@H](N)C3)cc12)c1ccccc1` (stereo partly drawn) [Compound 43, 2-{[(3R)-3-aminopiperidin-1-yl]carbonyl}-N-(4-methyl-2-phenylpentyl)pyrazolo [1,5-a]pyridine-4-carboxamide]: at most 2 µM.
Next, `CC(C)CC(CNC(=O)c1cccn2nc(C(=O)N3CC[C@@H](N)C3)cc12)c1ccccc1` (stereo partly drawn) [Compound 45, 2-{[(3R)-3-aminopyrrolidin-1-yl]carbonyl}-N-(4-methyl-2-phenylpentyl)pyrazolo [1,5-a]pyridine-4-carboxamide]: at most 2 µM.
For `CN[C@@H]1CCN(C(=O)c2cc3c(C(=O)NCC45CC6CC(CC(C6)C4)C5)cccn3n2)C1` [Compound 46, N-(adamantan-1-ylmethyl)-2-{[(3R)-3-(methylamino)pyrrolidin-1-yl]carbonyl}pyrazolo [1,5-a]pyridine-4-carboxamide] the value was at most 2 µM; for `CCN[C@@H]1CCN(C(=O)c2cc3c(C(=O)NCC45CC6CC(CC(C6)C4)C5)cccn3n2)C1` [Compound 47, N-(adamantan-1-ylmethyl)-2-{[(3R)-3-(ethylamino)pyrrolidin-1-yl]carbonyl}pyrazolo [1,5-a]pyridine-4-carboxamide], at most 2 µM; for `CN(Cc1cnccn1)C(=O)c1cc2c(C(=O)NCC34CC5CC(CC(C5)C3)C4)cccn2n1` [Compound 48, 4-N-(adamantan-1-ylmethyl)-2-N-methyl-2-N-(pyrazin-2-ylmethyl)pyrazolo[1,5-a]pyridine-2,4-dicarboxamide], at most 2 µM.
For `CN(Cc1cnn(C)c1)C(=O)c1cc2c(C(=O)NCC34CC5CC(CC(C5)C3)C4)cccn2n1` [Compound 49, 4-N-(adamantan-1-ylmethyl)-2-N-methyl-2-N-[(1-methyl-1H-pyrazol-4-yl)methyl]pyrazolo[1,5-a]pyridine-2,4-dicarboxamide], the IC50 is at most 2 µM.
Consider `CN(Cc1ccccn1)C(=O)c1cc2c(C(=O)NCC34CC5CC(CC(C5)C3)C4)cccn2n1` [Compound 50, 4-N-(adamantan-1-ylmethyl)-2-N-methyl-2-N-(pyridin-2-ylmethyl)pyrazolo[1,5-a]pyridine-2,4-dicarboxamide], for which the IC50 is at most 2 µM.
For `O=C(NCc1ccccn1)c1cc2c(C(=O)NCC34CC5CC(CC(C5)C3)C4)cccn2n1` [Compound 51, 4-N-(adamantan-1-ylmethyl)-2-N-(pyridin-2-ylmethyl)pyrazolo[1,5-a]pyridine-2,4-dicarboxamide] the value was at most 2 µM; for `O=C(NCC12CC3CC(CC(C3)C1)C2)c1cccn2nc(CN3CCn4cncc4C3)cc12` [Compound 52, N-(adamantan-1-ylmethyl)-2-(5,6-dihydroimidazo[1,5-a]pyrazin-7(8H)-ylmethyl)pyrazolo[1,5-a]pyridine-4-carboxamide], at most 2 µM; for `CN(Cc1ccccn1)Cc1cc2c(C(=O)NCC34CC5CC(CC(C5)C3)C4)cccn2n1` [Compound 53, N-(adamantan-1-ylmethyl)-2-{[methyl(pyridin-2-ylmethyl)amino]methyl} pyrazolo[1,5-a]pyridine-4-carboxamide], at most 2 µM.
For `CN(Cc1cccnc1)Cc1cc2c(C(=O)NCC34CC5CC(CC(C5)C3)C4)cccn2n1` [Compound 54, N-(adamantan-1-ylmethyl)-2-{[methyl(pyridin-3-ylmethyl)amino]methyl} pyrazolo[1,5-a]pyridine-4-carboxamide] the value was at most 2 µM; for `CN(Cc1cnccn1)Cc1cc2c(C(=O)NCC34CC5CC(CC(C5)C3)C4)cccn2n1` [Compound 55, N-(adamantan-1-ylmethyl)-2-{[methyl(pyrazin-2-ylmethyl)amino]methyl} pyrazolo[1,5-a]pyridine-4-carboxamide], at most 2 µM.
Next, `CC(C)CC(CNC(=O)c1cccn2nc(C(=O)N3CC[C@@H](N)C3)cc12)c1cccnc1` (stereo partly drawn) [Compound 56, 2-{[(3R)-3-aminopyrrolidin-1-yl]carbonyl}-N-(4-methyl-2-pyridin-3-ylpentyl)pyrazolo[1,5-a]pyridine-4-carboxamide]: at most 2 µM; `N[C@@H]1CCN(C(=O)c2cc3c(C(=O)NCC4(c5cccnc5)CCCCC4)cccn3n2)C1` [Compound 57, 2-{[(3R)-3-aminopyrrolidin-1-yl]carbonyl}-N-[(1-pyridin-3-ylcyclohexyl)methyl] pyrazolo[1,5-a]pyridine-4-carboxamide]: at most 2 µM.
As to `O=C(Cc1cc2c(C(=O)NCC34CC5CC(CC(C5)C3)C4)cccn2n1)NCCF` [Compound 59, N-(adamantan-1-ylmethyl)-2-{2-[(2-fluoroethyl)amino]-2-oxoethyl}pyrazolo[1,5-a]pyridine-4-carboxamide], the IC50 was at most 2 µM.
Next, `O=C(Cc1cc2c(C(=O)NCC34CC5CC(CC(C5)C3)C4)cccn2n1)NCC(F)F` [Compound 60, N-(adamantan-1-ylmethyl)-2-{2-[(2,2-difluoroethyl)amino]-2-oxoethyl}pyrazolo[1,5-a]pyridine-4-carboxamide]: at most 2 µM.
Next, `O=C(Cc1cc2c(C(=O)NCC34CC5CC(CC(C5)C3)C4)cccn2n1)NCC(F)(F)F` [Compound 61, N-(adamantan-1-ylmethyl)-2-{2-oxo-2-[(2,2,2-trifluoroethyl)amino]ethyl}pyrazolo[1,5-a]pyridine-4-carboxamide]: at most 2 µM; `O=C(NCCF)c1cc2c(C(=O)NCC34CC5CC(CC(C5)C3)C4)cccn2n1` [Compound 62, 4-N-(adamantan-1-ylmethyl)-2-N-(2-fluoroethyl)pyrazolo [1,5-a]pyridine-2,4-dicarboxamide]: at most 2 µM.

The values above are taken from patent publication US8580812B2, “Heteroaryl amide analogues as P2X7 antagonists” (H. Lundbeck A/S, priority 2007, dated 2013).
